Article PMC4099323, “Inhibition of Catalase by Tea Catechins in Free and Cellular State: A Biophysical Approach” (PLoS ONE, 2014)

Biological target: T1, Catalase (from bovine liver) (Bos taurus, UniProt P00432)
T1 construct: Catalase (from bovine liver); purchased Sigma-Aldrich, St. Louis, MO, USA; host or cells: bovine liver
T1 sequence (P00432 2-527 limits assumed): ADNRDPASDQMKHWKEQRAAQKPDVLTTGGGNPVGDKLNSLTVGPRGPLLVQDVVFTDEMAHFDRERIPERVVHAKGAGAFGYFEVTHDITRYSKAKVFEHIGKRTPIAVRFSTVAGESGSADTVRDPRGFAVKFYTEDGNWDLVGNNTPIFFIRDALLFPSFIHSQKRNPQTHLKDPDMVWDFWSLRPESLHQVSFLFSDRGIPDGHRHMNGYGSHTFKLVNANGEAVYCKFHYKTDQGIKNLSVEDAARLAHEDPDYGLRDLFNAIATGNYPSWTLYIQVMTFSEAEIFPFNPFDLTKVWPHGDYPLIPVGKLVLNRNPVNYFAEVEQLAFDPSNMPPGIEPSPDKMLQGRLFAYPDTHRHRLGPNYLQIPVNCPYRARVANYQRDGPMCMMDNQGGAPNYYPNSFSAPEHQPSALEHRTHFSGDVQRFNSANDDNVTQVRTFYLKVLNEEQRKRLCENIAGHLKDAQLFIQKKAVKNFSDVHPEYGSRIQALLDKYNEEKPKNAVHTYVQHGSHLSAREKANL
Experiment: Fluorimetric titration: quenching of catalase fluorescence by catechins
Assay type: binding
Method: Fluorescence spectra were recorded using a Perkin Elmer fluorescence spectrophotometer (LS-55) equipped with 150 W Xenon flash lamp and using fluorescence-free quartz cell of 1 cm path length. The widths of excitation and emission slits were set to 5 nm, and scan speed (100 nm/min), excitation voltage were kept constant for each data set. Quantitative analysis of the potential interaction between catechins and catalase was performed by the fluorimetric titration technique. Briefly, solution of catalase (5×10^−7 M, as calculated using molar extinction coefficient of 3.24×10^5 M^−1 s^−1 at 405 nm for catalase) in 50 mM phosphate buffer of pH 7.4 was titrated in cuvette by successive additions of individual catechin solution aliquots from a stock of 5×10^−7 M. Fluorescence emission spectra were recorded in the wavelength range of 290–450 nm upon excitation at 280 nm when catalase samples were titrated with catechins. All experiments were carried out at room temperature. Fluorescence intensity was measured at 340 nm of protein emission spectra. Fluorescence spectra of individual catechins in buffer were recorded as blanks under the same experimental conditions and subtracted from the corresponding sample to correct the fluorescence background.
The binding constants and the number of binding sites involved were calculated according to the relation: log (F0–F)/F = log K+n log [Q], where K is the binding constant and n is the number of binding sites, F0 is the fluorescence intensity of free catalase, F is the consecutive fluorescence on addition of catechins, and [Q] is the concentration of the quencher (here catechins). A plot of log (F0– F)/F and log [Q] was used to determine the values of K and n from the intercept and the slope respectively (Figure 3 A–D).

## O=C(O[C@@H]1Cc2c(O)cc(O)cc2O[C@@H]1c1cc(O)c(O)c(O)c1)c1cc(O)c(O)c(O)c1 [EGCG, (−)-epigallocatechin gallate]
Double logarithmic plot, 25°C
  number of binding sites n: single binding site
Double logarithmic plot, 25°C, pH 7.4, λex 280 nm
  binding constant K with catalase (fluorimetric): 2.27e+06 M⁻¹
From the fluorimetric binding constant, read-out: K d to catalase
  Kd: 440 nM
